We go through 4 compounds from US20210214285A1, “EMULSION FOR TREATING UREA-CONTAINING FERTILIZERS” (EUROCHEM AGRO GMBH, priority 2018, published 2021).

For data set [1] the following is noted: at 20° C.; cited from earlier work.
Data set [2] is described as follows: Storage stability test of treated urea fertilizers (NBPT and DMPSA content over time). It counts as physicochemical. To be noted: urea coated with DMPSA/NBPT emulsion (invention, FIG. 2) versus sequential application (comparative, FIG. 1); stored 90 days under standard conditions in a climate-controlled cabinet. As for the experimental part:
20 kg of granulated urea was initially charged in a mixer. 35 g of the NBPT formulation and 79 g of DMPSA formulation were introduced into a spray bottle and shaken until a homogeneous emulsion had formed. The formulation emulsion was immediately sprayed onto the urea, with intermittent shaking of the spray bottle in order to prevent settling of the emulsion. The mixer was operated for a further 10 minutes until a homogeneous product was obtained.
In a comparative experiment, identical amounts of DMPSA and NBPT were applied to urea. DMPSA formulation was applied first to the urea by the method described above, and the NBPT formulation was applied after drying.
Storage stability tests were conducted for both the urea fertilizers treated. They were stored for a period of 90 days under standard conditions in a climate-controlled cabinet. The NBPT and DMPSA content was determined at time intervals.

Data set [3] is described as follows: Comparative experiment: urea treated with DMPP/NBPT emulsion, degradation on storage (HPLC). The note with it: for amount broken down: after a period of 7 days.

Converted amounts (≈) assume the structure as drawn.

On to `CCCCCC(CO)CCC` (stereo not shown) [2-Propylheptan-1-ol], for which the water solubility in data set [1] is 58 µg/mL (≈ 366 µM).
Take `CCCCNP(N)(N)=S` [NBPT, N-(n-butyl)-thiophosphoric acid triamide]: in data set [2], the “decrease in NBPT and DMPSA content over time” value was “significantly smaller”. Moreover, in data set [3], the degradation characteristics result is “rapid degradation characteristics” and the amount broken down turned out to be 100%.
Turning to `Cc1cn(C(CC(=O)O)C(=O)O)nc1C` (stereo not shown) [DMPSA, 2-(N-3,4-dimethylpyrazole)succinic acid], in data set [2], the “decrease in NBPT and DMPSA content over time” value is on record as “significantly smaller”.
For the compound `Cc1c[nH]nc1C.O=P(O)(O)O` [DMPP, 3,4-dimethylpyrazole phosphate, reference compound], in data set [3], the degradation characteristics entry was “rapid degradation characteristics” and the amount broken down entry is recorded as “about 50%”.
